# Measurements published in ChEMBL document CHEMBL1932979, “Conformationally restricted analog and biotin-labeled probe based on beauveriolide III” (Bioorg Med Chem Lett, 2012).
# The source made the active and inactive calls. The calls are words filed in the database; no cut-off is given here.
# Key:
# [1] = biological target: T1, Sterol O-acyltransferase 1 (Homo sapiens, UniProt P35610); experiment: Inhibition of ACAT1- mediated cholesteryl ester synthesis in macrophages
# T1 sequence (P35610 whole entry): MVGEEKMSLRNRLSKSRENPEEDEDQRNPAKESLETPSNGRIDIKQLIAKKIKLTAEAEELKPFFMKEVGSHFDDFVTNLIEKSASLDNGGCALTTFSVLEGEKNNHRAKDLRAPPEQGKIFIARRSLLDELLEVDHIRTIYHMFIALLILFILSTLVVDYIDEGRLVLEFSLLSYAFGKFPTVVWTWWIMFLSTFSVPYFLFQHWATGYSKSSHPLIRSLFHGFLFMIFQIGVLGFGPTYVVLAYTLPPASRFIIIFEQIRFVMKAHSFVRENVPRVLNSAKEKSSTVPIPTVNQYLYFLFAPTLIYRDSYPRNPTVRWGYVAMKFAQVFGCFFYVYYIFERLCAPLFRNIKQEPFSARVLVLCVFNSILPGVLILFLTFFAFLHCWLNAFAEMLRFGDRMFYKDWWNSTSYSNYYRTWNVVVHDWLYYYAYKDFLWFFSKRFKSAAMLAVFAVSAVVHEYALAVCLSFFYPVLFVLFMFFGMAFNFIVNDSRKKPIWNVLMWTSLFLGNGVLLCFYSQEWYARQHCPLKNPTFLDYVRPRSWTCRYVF
# [2] = biological target: T2, Sterol O-acyltransferase 1 (Homo sapiens) (UniProt P35610); experiment: Inhibition of ACAT1- mediated cholesteryl ester synthesis in macrophages up to 10 uM
# T2 sequence (whole entry): T1 sequence (P35610 whole entry)
IC50 [1],inhibition [2],Structure (SMILES)
280 nM,,CCCC[C@H](C)[C@@H]1CC(=O)N[C@@H](C(c2ccccc2)c2ccccc2)C2=N[C@H](CO2)C(=O)N[C@H](C2CCCCC2)C(=O)O1
800 nM,inactive,CCCC[C@H](C)[C@@H]1CC(=O)N[C@@H](C(c2ccccc2)c2ccccc2)C(=O)N[C@H](Cn2cc(CNC(=O)CCCCNC(=O)CCCC[C@@H]3SC[C@@H]4NC(=O)N[C@@H]43)nn2)C(=O)N[C@H](C2CCCCC2)C(=O)O1
